Read-outs that look alike come from different tables or passages of the source.
Columns and labels:
5-HT2B receptor [1] = target: T1, 5-HT2B receptor (Homo sapiens, UniProt P41595); experiment: cell-based; format: cell-based; details: Ca2+ flux; for Emax: HEK293, agonist, HEK293, max dose, read-out: 5-HT2B % Act @ Max Dose; for EC50: agonist, HEK293
T1 construct: expressed in transfected cells; host or cells: HEK293, stably transfected
Outline: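 FLIPR Tetra fluorescence read-out of calcium flux after compound addition. Receptor-expressing stable lines were used (HEK293 for 2A/2B; CHO with Gα15 for 1A), dye-loaded with Fluo-4 Direct and 2.5 mM final probenecid, 50 min at 37 °C.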

5-HT1A receptor = target: T2, 5-HT1A receptor (Homo sapiens, UniProt P08908); experiment: cell-based; details: agonist, Ca2+ flux; for Emax: CHO, CHO cells with Gα15, max dose, read-out: 5-HT1A % Act @ Max Dose; for EC50: CHO cells with Gα15
T2 construct: expressed in transfected cells; host or cells: CHO cells, stably transfected
T2 sequence (P08908 1-422): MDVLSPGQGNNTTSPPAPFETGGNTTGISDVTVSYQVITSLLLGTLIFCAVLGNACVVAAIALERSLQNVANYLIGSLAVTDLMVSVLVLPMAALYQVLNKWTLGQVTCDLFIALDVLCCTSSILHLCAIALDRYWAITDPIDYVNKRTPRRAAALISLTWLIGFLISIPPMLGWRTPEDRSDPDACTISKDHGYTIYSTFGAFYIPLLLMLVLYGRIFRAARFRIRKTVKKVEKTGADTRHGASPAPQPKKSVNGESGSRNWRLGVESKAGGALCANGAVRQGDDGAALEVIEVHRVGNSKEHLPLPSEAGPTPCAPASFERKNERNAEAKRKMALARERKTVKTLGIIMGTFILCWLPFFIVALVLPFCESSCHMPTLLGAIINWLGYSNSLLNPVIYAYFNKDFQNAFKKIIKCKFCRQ
Outline: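 Receptor agonism was assessed as intracellular calcium mobilization in stably transfected cells, with CHO cells additionally carrying Gα15 for the 5-HT1A readout. Calcium was monitored with Fluo-4 Direct dye.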

5-HT1B receptor = target: T3, 5-HT1B receptor (Homo sapiens, UniProt P28222); experiment: cAMP accumulation functional assay at 5-HT1B; format: cell-based; details: agonist, cAMP accumulation, max dose; read-out: 5-HT1B % Act @ Max Dose
T3 construct: expressed in transfected cells
Outline: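 Stably transfected human 5-HT1B cells were incubated 60 min at room temperature, after which detection reagent was applied for another 60 min at RT. The read-out was cAMP accumulation, used as a measure of agonist activity.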

[2] = target: T4, Alpha1A adrenergic receptor (Homo sapiens, UniProt P35348); experiment: Ca2+ flux functional assay at Alpha1A; format: cell-based; details: agonist, Ca2+ flux, max dose; read-out: Alpha 1A % Act @ Max Dose
T4 construct: expressed in transfected cells
T4 sequence (P35348 1-466): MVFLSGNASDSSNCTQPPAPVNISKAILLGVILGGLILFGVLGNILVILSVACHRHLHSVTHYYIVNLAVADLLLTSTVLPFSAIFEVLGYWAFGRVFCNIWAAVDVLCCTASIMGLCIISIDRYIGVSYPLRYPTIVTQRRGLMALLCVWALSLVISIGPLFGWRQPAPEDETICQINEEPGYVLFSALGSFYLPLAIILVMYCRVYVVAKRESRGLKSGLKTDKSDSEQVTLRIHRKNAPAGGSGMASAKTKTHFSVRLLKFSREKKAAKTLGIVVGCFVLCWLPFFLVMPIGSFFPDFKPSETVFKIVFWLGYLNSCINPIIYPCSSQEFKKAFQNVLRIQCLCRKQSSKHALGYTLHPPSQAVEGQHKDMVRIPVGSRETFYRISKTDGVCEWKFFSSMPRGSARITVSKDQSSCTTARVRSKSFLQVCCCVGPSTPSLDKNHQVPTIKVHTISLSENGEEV
Protocol: Disclosed compounds were tested for agonist activity at several adrenergic (Alpha1A and Alpha2A) and dopamine (D1 and D2) receptor subtypes using Ca^2+ flux functional assays, with the results summarized in Table 6. Selectivity for the 5-HT2A receptor over these other targets varied depending on the specific target and compound.
(§1) Functional Assays at Adrenergic and Dopamine Receptors. Agonist activity at Alpha1A, Alpha2A, D1, and D2 receptors was determined using a FLIPR Ca^2+ flux assay at WuXi AppTec (Hong Kong) Limited according to their standard protocols. Briefly, stably transfected cells expressing the receptor of interest were grown and plated in a 384 well plate and incubated at 37° C. and 5% CO2 overnight. A solution of 250 mM probenecid in 1 mL FLIPR assay buffer was prepared fresh. This was combined with a fluorescent dye (Fluo-4 Direct™) to make a final assay concentration of 2.5 mM. Compounds were diluted 1:3.16 for 10 points and 750 nL was added to a 384 well compound plate using ECHO along with 30 μL assay buffer. The fluorescent dye was then added to the assay plate along with assay buffer to a final volume of 40 μL. The cell plate was incubated for 50 min at 37° C. and 5% CO2 and placed into the FLIPR Tetra along with the compound plate. 10 μL of references and compounds were then transferred from the compound plate into the cell plate and the fluorescent signal was read.

in vitro [3] = format: in vitro ADME, human; details: HLM 0.50 mg/mL, NADPH 1 mM, 1 μM compound, pH 7.4, 37° C., 60 min; for microsomal CLint / half-life: human, microsomes; for microsomal CLint: read-out: Intrinsic clearance (Clint); for half-life: read-out: half-life (t1/2)
in vitro [4] = format: in vitro ADME, mouse; details: MLM (male CD-1) 0.50 mg/mL, NADPH 1 mM, 1 μM compound, pH 7.4, 37° C., 60 min; for microsomal CLint / half-life: mouse, microsomes; for microsomal CLint: read-out: Intrinsic clearance (Clint); for half-life: read-out: half-life (t1/2)
Source text: MLM Stability Pooled MLM from male CD-1 mice (BIOIVT M00501) were used.

in vitro [5] = format: in vitro ADME, rat; details: RLM (male Sprague-Dawley) 0.50 mg/mL, NADPH 1 mM, 1 μM compound, pH 7.4, 37° C., 60 min; for microsomal CLint / half-life: rat, microsomes; for microsomal CLint: read-out: Intrinsic clearance (Clint); for half-life: read-out: half-life (t1/2)
Source text: RLM Stability Pooled RLM from male Sprague-Dawley rats (Xenotech R1000) were used.

5-HT2A receptor [6] = target: T5, 5-HT2A receptor (Homo sapiens, UniProt P28223); experiment: cell-based; format: cell-based; design: expressed in transfected cells; host or cells: HEK293, stably transfected; details: Ca2+ flux; for Emax: HEK293, agonist, HEK293, max dose, read-out: 5-HT2A % Act @ Max Dose; for EC50: agonist, HEK293
Outline: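 Agonism measured as calcium flux on FLIPR Tetra. Receptor lines: HEK293 for 5-HT2A and 5-HT2B, CHO with Gα15 for 5-HT1A; dye loading with Fluo-4 Direct and probenecid (2.5 mM final) ran 50 min at 37 °C before compound addition and signal reading.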

5-HT2B receptor [7] = target: T1, 5-HT2B receptor; experiment: 5-HT2B receptor radioligand binding ([3H]LSD); details: read-out: 5-HT2B Receptor Ki
5-HT2C receptor = target: T6, 5-HT2C receptor (Homo sapiens, UniProt P28335); experiment: Ca2+ flux functional assay at 5-HT2C (WuXi 5-HT2C protocol); format: cell-based; design: expressed in transfected cells; details: for Emax: agonist, tested using WuXi 5-HT2C protocol, max dose, read-out: 5-HT2C % Act @ Max Dose (* WuXi protocol)
T6 sequence (P28335 33-458): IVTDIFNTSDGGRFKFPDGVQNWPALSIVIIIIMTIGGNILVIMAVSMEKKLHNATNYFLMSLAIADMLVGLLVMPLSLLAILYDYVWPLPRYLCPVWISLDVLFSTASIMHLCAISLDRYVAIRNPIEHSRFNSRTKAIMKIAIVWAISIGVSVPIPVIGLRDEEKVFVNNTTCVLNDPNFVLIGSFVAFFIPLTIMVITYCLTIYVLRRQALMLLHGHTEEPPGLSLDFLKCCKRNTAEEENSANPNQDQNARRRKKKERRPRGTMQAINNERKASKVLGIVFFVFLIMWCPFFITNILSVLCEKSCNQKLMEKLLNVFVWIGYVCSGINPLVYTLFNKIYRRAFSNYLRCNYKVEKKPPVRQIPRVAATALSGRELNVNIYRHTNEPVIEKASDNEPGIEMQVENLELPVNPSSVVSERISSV
Protocol: Disclosed compounds were tested for agonist activity at several serotonin receptor subtypes (5-HT2A, […], 5-HT2C, and 5-HT1A) using Ca^2+ flux functional assays and the 5-HT1B receptor using a cAMP accumulation assay, with the results summarized in Table 4. […] Potent agonist activity was also observed at the other serotonin receptors tested, although the selectivity profile among the receptors varied across compounds. […] However, at the same time, the N-propyl compounds were more efficacious agonists at 5-HT2B than the corresponding N-methyl compounds. The selectivity of disclosed compounds for 5-HT2A over 5-HT2C and 5-HT1A was less predictable and varied widely across compounds. […] An azetidinyl amide substituent tended to increase potency at 5-HT1A relative to 5-HT2A.
as §1, with “5-HT2A, 5-HT2B,” for “Adrenergic”, “5-HT1A.” for “Dopamine Receptors.”, “5-HT2A, 5-HT2B, 5HT2C” for “Alpha1A, Alpha2A, D1,”, “5-HT1A” for “D2”, “interest and Gα15 in the case of 5-HT1A (HEK293 for 5-HT2A and 5-HT2B; CHO cells for 5-HT1A)” for “interest”

5-HT2A receptor [8] = target: T5, 5-HT2A receptor; experiment: biochemical; format: binding; design: expressed in transfected cells; host or cells: HEK293, stably transfected; details: [3H]ketanserin 1 nM; HEK293 stable cell line; 1 h, 25 °C
Outline: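 Test compounds competed with [^3H]ketanserin for receptor binding, and affinity was derived from the radioligand displacement.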

T1 sequence (P41595 whole entry): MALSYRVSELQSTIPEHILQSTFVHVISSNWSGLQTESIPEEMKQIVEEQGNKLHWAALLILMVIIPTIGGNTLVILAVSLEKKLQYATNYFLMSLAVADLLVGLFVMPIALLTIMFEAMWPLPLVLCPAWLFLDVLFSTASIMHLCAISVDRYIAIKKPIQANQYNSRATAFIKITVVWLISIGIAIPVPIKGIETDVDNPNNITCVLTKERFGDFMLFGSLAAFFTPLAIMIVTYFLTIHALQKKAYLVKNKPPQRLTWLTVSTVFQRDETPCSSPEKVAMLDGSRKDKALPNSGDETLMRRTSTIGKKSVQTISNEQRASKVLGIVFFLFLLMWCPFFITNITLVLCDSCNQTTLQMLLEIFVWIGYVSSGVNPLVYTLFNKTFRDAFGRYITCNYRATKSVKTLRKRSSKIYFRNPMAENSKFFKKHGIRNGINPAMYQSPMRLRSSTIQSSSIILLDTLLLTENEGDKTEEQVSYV
T5 sequence (P28223 whole entry): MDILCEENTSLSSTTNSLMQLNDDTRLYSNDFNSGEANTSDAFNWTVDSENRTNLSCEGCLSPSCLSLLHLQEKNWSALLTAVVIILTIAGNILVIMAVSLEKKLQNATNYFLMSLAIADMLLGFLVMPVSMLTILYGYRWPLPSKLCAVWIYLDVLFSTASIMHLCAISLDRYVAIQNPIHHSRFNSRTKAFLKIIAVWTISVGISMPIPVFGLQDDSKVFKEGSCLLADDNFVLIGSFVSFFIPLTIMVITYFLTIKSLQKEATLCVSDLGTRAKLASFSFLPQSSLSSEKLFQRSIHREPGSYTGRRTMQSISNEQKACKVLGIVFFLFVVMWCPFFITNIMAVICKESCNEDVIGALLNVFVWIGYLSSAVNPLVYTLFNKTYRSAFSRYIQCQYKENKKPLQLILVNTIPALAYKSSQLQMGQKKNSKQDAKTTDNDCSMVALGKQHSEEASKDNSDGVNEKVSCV
T3 sequence (P28222 whole entry): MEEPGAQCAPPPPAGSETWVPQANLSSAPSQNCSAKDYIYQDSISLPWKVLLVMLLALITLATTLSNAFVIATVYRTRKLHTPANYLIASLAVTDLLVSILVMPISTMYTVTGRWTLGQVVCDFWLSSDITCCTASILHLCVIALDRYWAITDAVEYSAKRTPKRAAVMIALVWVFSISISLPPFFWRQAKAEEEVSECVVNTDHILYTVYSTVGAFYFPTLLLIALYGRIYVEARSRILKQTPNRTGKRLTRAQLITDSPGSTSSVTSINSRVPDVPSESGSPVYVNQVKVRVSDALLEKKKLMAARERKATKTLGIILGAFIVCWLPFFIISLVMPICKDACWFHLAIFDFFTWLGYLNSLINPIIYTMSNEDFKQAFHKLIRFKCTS

Structure (SMILES)	Emax (5-HT2B receptor [1])	Emax (5-HT1A receptor)	Emax (5-HT2A receptor [6])	Ki (5-HT2B receptor [7])	EC50 (5-HT2B receptor [1])	EC50 (5-HT1A receptor)	microsomal CLint (in vitro [3])	half-life (in vitro [3])	microsomal CLint (in vitro [4])	half-life (in vitro [4])	microsomal CLint (in vitro [5])	half-life (in vitro [5])	EC50 (5-HT2C receptor)	Emax (5-HT2C receptor)	Ki (5-HT2A receptor [8])	EC50 (5-HT2A receptor [6])	other results
CCN(CC)C(=O)[C@@H]1C=C2c3cccc4[nH]cc(c34)C[C@H]2N(CCC(F)(F)F)C1 [Compound 12, (6aR,9R)—N,N-diethyl-7-(3,3,3-trifluoropropyl)-4,6,6a,7,8,9-hexahydroindolo[4,3-fg]quinoline-9-carboxamide]	29.6%	71.4%	78.7%														Emax (5-HT1B receptor): 95.5%; Emax [2]: 2.08%; half-life (t1/2) (in vitro [3]): 13.5 min; half-life (t1/2) (in vitro [4]): 2.1 min; half-life (t1/2) (in vitro [5]): 5.9 min
CN(C)C(=O)[C@@H]1C=C2c3cccc4[nH]cc(c34)C[C@H]2N(Cc2ccccc2)C1 [Compound 102, (6aR,9R)-7-benzyl-N,N-dimethyl-4,6,6a,7,8,9-hexahydroindolo[4,3-fg]quinoline-9-carboxamide]	5.86%	90.1%	65.2%	170 nM	> 10 µM	26.2 µM	16.9 µL/min/mg	82 min	111 µL/min/mg	12.5 min	134 µL/min/mg	10.3 min	0.685 µM	76.6%	10.8 nM	155 nM	
CCN(C)C(=O)[C@@H]1C=C2c3cccc4[nH]cc(c34)C[C@H]2N(Cc2cccc(OC)c2)C1 [Compound 92, (6aR,9R)—N-ethyl-7-(3-methoxybenzyl)-N-methyl-4,6,6a,7,8,9-hexahydroindolo[4,3-fg]quinoline-9-carboxamide]	0.48%	21.6%	53.8%	1950 nM	> 10 µM	> 100 µM	140 µL/min/mg	9.9 min	321 µL/min/mg	4.3 min	278 µL/min/mg	5 min	> 10 µM	12.5%	11.1 nM	793 nM	
CCN(C)C(=O)[C@@H]1C=C2c3cccc4[nH]cc(c34)C[C@H]2N(CC2CCCC2)C1 [Compound 103, (6aR,9R)-7-(cyclopentylmethyl)-N-ethyl-N-methyl-4,6,6a,7,8,9-hexahydroindolo[4,3-fg]quinoline-9-carboxamide]	5.54%	122%	80.1%	11.7 nM	> 10 µM	84.4 µM	121 µL/min/mg	11.4 min	277 µL/min/mg	5 min	185 µL/min/mg	7.5 min	> 10 µM	21.7%	1.6 nM	422 nM	

Source: US20260317319A1, “NOVEL ERGOLINES AND METHODS OF TREATING MOOD DISORDERS” (Gilgamesh Pharma Inc., priority 2023, published 2026)
